Among the data in patent US7189756B2, “Pyrrolidine derivatives” (Hoffman-La Roche Inc., priority 2000, dated 2007) are melting point values, retold here.

In turn, `CS(=O)(=O)N1C[C@H](S)C[C@H]1COCC1CCCCC1` showed a melting point of 68 to 69 °C.

For `CS(=O)(=O)N1C[C@H](S)C[C@H]1Cn1nnc(C(N)=O)c1N`, the melting point was 189 °C.

Regarding `CCOC(=O)c1nnn(C[C@@H]2C[C@@H](S)CN2S(=O)(=O)c2ccc3ccccc3c2)c1C`, the melting point is 95 °C.

In turn, `Cc1c(-c2ccccc2)nnn1C[C@@H]1C[C@@H](S)CN1S(=O)(=O)c1ccc2ccccc2c1` returned a melting point of 146 °C.

Consider `Nc1c(-c2ccccc2)nnn1C[C@@H]1C[C@@H](S)CN1S(=O)(=O)c1ccc2ccccc2c1`, for which the melting point turned out to be 70 °C.

In the case of `O=C(Nc1ccccc1F)N1C[C@H](S)C[C@H]1CNCc1cc(F)ccc1F`, the melting point came to 126 °C.

As usually defined, the melting point is the temperature of the solid-liquid transition.
